Reference: patent US20230381142A1, “ANTILEISHMANIAL COMPOUNDS, COMPOSITIONS AND USE THEREOF” (TRUSTEES OF BOSTON UNIVERSITY, priority 2022, published 2023)
In brackets after ≈: the same amount, converted by molar mass.

Legend:
[1] = Kinetic aqueous solubility by CLND; type: physicochemical; conditions: kinetic from dmso stock, high-throughput CLND
Procedure: Solubility of compounds using ChemiLuminescent Nitrogen Detection (CLND) was measured as described. Solubility of compounds using Charged Aerosol Detection (CAD) was measured as described. Solubility of solid compounds in Fasted Simulated Intestinal Fluid (FaSSIF) was measured as described.

[2] = test system: host THP-1 macrophages; assay: GSK inMac assay, host cell toxicity readout (LD MAC); type: cell-based, human; conditions: Homo sapiens, THP-1, cytotoxicity against host THP-1 macrophages
How it was run: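 Intramacrophage L. donovani assay in THP-1 macrophages; host toxicity taken from host cell number per well, giving MAC EC50. Run alongside amastigote-per-cell and infected-cell readouts in the same wells.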

[3] = test system: HepG2 cells; assay: HepG2 cytotoxicity; type: cell-based; conditions: Homo sapiens; toxicity against HepG2 cells
Procedure: Given the literature precedents described above and the apparent narrow tolerance for R^3 substitutions observed in the primary screen compounds, a thorough and methodical assessment was undertaken of tolerated groups at the three points of diversity (R^1/R^2/R^3) for the core. At this stage of the project, all analogues were assessed using a battery of assays performed in-house at GlaxoSmithKline. For antileishmanial activity, GSK's inMac assay was utilized. This assay provides two readouts of compound potency: average number of intracellular amastigotes per infected cell (AMMAC) EC50, percentage of infected cells per well (INFCELL) EC50, as well as a toxicity output derived from the number of host cells (MAC EC50). In addition, compounds were assessed for toxicity against HepG2 cells (HEPG2 EC50). Here, AMMAC EC50 values were focused on for relative potency assessments. […] It should be noted that for all compounds assessed in this project, the measured toxicity against THP-1 macrophages either equaled or exceeded that of HepG2 hepatocytes, therefore the MAC SI is used here as the more conservative estimate of therapeutic index.

[4] = molecular target: human serum albumin (Homo sapiens, UniProt P02768); assay: Human serum albumin (HSA) binding, chromatographic; type: in vitro ADME
Chain of human serum albumin (P02768 25-609): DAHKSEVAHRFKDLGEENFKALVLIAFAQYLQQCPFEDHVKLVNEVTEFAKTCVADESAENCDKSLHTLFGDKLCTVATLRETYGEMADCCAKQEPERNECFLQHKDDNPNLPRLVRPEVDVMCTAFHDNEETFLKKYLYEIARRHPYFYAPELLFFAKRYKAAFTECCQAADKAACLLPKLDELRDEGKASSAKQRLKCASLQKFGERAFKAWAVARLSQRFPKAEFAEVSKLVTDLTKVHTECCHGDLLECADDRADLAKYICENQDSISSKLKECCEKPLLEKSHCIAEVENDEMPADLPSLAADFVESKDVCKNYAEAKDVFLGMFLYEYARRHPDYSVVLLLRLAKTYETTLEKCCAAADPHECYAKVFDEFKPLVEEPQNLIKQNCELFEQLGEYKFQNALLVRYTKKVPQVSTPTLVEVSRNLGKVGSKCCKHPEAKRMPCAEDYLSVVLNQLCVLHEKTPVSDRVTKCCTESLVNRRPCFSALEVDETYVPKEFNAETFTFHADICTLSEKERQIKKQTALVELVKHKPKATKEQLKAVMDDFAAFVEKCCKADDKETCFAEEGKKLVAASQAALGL
Procedure: The percentage of compound bound to human serum albumin was measured using a chromatographic method as described. Briefly, each compound was assayed on an immobilized HSA column and gradient retention times measured, with chromatographic peak detection by UV. Each retention time was then converted to a % HSA bound value using a calibration set of compounds with a known % HSA binding.

[5] = Property forecast index (PFI = ChromLogD7.4 + aromatic rings); type: physicochemical
Procedure: At the outset of the project, compound 1 was evaluated against GSK's established criteria for antileishmanial compound advancement (Table 2). Some of these assessments were performed on racemic 1, while chiral separation was also pursued of the 1 racemate to determine the active enantiomer. […] Based on this promising profile, it progressed into medicinal chemistry optimization to better understand structure-activity relationships (SAR) toward improved potency, as well as structure-property relationships (SPR) with an eye toward reducing PFI and plasma protein binding.

[6] = test system: L. donovani intracellular amastigotes infecting THP-1 macrophages; assay: GSK intramacrophage L. donovani assay (LD AMMAC, inMac; Assay Conditions C); type: cell-based; conditions: Leishmania donovani; growth inhibition of L. donovani intracellular amastigotes infecting THP-1 macrophages; read-out: LD AMMAC EC50
How it was run: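 L. donovani amastigotes within THP-1 macrophages; EC50 based on average intracellular amastigotes per infected cell (AMMAC). Infected-cell percentage (INFCELL) and host-cell number (MAC) also read, the latter as toxicity output.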

[7] = Artificial membrane permeability (AMP); type: in vitro ADME; conditions: PAMPA, pH 7.4
Procedure: Passive permeability of compounds via rate of permeation through an artificial phospholipid membrane at pH 7.4 was measured in a high-throughput format, in duplicate. A solution of 1.8% phosphatidylcholine in 1% decane was added to a 96-well Millicell filter plate along with 250 μL of 50 mM phosphate buffer, pH 7.4 on the donor side, and 100 μL of the same buffer solution on the receiver side. The assay plate was shaken for 45 minutes before adding test compounds. Test compounds were then added to the filter plate and then incubated at room temperature with shaking for three hours. The donor and receiver solutions were next transferred to a 384-well plate for analysis by LC/MS.

[8] = aqueous medium (not further specified)

Row | SMILES | solubility [1, 8] [µM] | EC50 [2] [µM] | EC50 [3] [µM] | HSA Binding [4] [%] | PFI [5] | EC50 [6] [µM] | Papp at 3 h [7] [×10⁻⁶ cm/s] | solubility ([1]; aqueous medium) [µM]
1 | COC1CCC(N2C(=O)c3[nH]nc(CC(C)C)c3C2c2ccc(F)cc2)CC1 (stereo not shown) [Compound 36] | ≥ 450 | > 50 | > 100 | 92.1 | 7.3 | 25.1 | 57 | 
2 | CC(C)Cc1n[nH]c2c1C(c1ccc(F)cc1)N(C1CCC(N(C)C)CC1)C2=O (stereo not shown) [Compound 37] | ≥ 446 | > 50 | > 100 | 81.1 | 4.6 | 25.1 | 13 | 
3 | CC(C)Cc1n[nH]c2c1C(c1ccc(F)cc1)N(C1CCOCC1)C2=O (stereo not shown) [Compound 38] | ≥ 381 | > 50 | > 100 | 90.2 | 6.5 | 31.6 | 49 | 
4 | CC(C)Cc1n[nH]c2c1C(c1ccc(F)cc1)N(CC1CCN(C)C1)C2=O (stereo not shown) [Compound 40] | ≥ 351 | > 50 | > 100 | 77.5 | 4.8 | > 50 | < 1 | 
5 | COCCN1C(=O)c2[nH]nc(CC(C)C)c2C1c1ccc(F)cc1 (stereo not shown) [Compound 41] | ≥ 421 | > 50 | > 100 | 90.2 | 6.7 | > 50 | 52 | 
6 | COc1ccc(N2C(=O)c3[nH]nc(CC(C)C)c3C2c2ccc(F)cc2)c(OC)c1 (stereo not shown) [Compound 43] |  | 31.6 | 63.1 | 96.2 | 8.5 | 20 | 17 | 138 (≈ 56.5 µg/mL)
7 | COc1ccc(N2C(=O)c3[nH]nc(CC(C)C)c3C2c2ccc(Cl)cc2)cc1 (stereo not shown) [Compound 47] | 22 (≈ 8.71 µg/mL) | 15.8 | 50.1 | 96.9 | 9.2 | 4 | 33 | 
8 | COc1ccc(N2C(=O)c3[nH]nc(CC(C)C)c3C2c2ccc(Br)cc2)cc1 (stereo not shown) [Compound 48] | 9 (≈ 3.96 µg/mL) | 15.8 | 50.1 | 97.2 | 9.3 | 6.3 | 42 | 
9 | COc1ccc(N2C(=O)c3[nH]nc(CC(C)C)c3C2c2ccc(C(F)(F)F)cc2)cc1 (stereo not shown) [Compound 49] | 12 (≈ 5.15 µg/mL) | 15.8 | 50.1 | 96.9 | 9.3 | 8 | 21 | 
10 | COc1ccc(N2C(=O)c3[nH]nc(CC(C)C)c3C2c2ccc(C(=O)O)cc2)cc1 (stereo not shown) [Compound 50] | ≥ 470 | > 50 | > 100 | 90.7 | 4.5 | > 50 | < 0.3 | 
11 | COC(=O)c1ccc(C2c3c(CC(C)C)n[nH]c3C(=O)N2c2ccc(OC)cc2)cc1 (stereo not shown) [Compound 51] | 44 (≈ 18.5 µg/mL) | 39.8 | 63.1 | 95 | 8.2 | 25.1 | 38 | 
12 | COc1ccc(N2C(=O)c3[nH]nc(CC(C)C)c3C2C2CCCCC2)cc1 (stereo not shown) [Compound 52] | 29 (≈ 10.7 µg/mL) | 25.1 | 50.1 | 97.6 | 8.5 | 7.9 | 33 | 
13 | COc1ccc(N2C(=O)c3[nH]nc(CC(C)C)c3C2C2CCCC2)cc1 (stereo not shown) [Compound 53] | 119 (≈ 42.1 µg/mL) | 20 | > 100 | 96.3 | 8.1 | 12.6 | 59 | 
14 | COc1ccc(N2C(=O)c3[nH]nc(CC(C)C)c3C2c2ccccc2F)cc1 (stereo not shown) [Compound 54] | 75 (≈ 28.5 µg/mL) | 31.6 | 31.6 | 97.3 | 8.6 | 3.2 | 23 | 
15 | COc1ccc(N2C(=O)c3[nH]nc(CC(C)C)c3C2c2ccccc2Br)cc1 (stereo not shown) [Compound 56] | 12 (≈ 5.28 µg/mL) | 25.1 | 39.8 | 97.1 | 9.2 | 0.5 | 30 | 
16 | COc1ccc(N2C(=O)c3[nH]nc(CC(C)C)c3C2c2ccccc2OC)cc1 (stereo not shown) [Compound 57, 3-isobutyl-4-(2-methoxyphenyl)-5-(4-methoxyphenyl)-4,5-dihydropyrrolo[3,4-c]pyrazol-6(1H)-one] | 57 (≈ 22.3 µg/mL) | 25.1 | 6.3 | 95.7 | 8.6 | 0.5 | 35 | 
17 | COc1ccc(N2C(=O)c3[nH]nc(CC(C)C)c3C2c2cccc(F)c2)cc1 (stereo not shown) [Compound 58] | 91 (≈ 34.5 µg/mL) | 12.6 | 50.1 | 96.9 | 8.3 | 5 | 37 | 
18 | COc1ccc(N2C(=O)c3[nH]nc(CC(C)C)c3C2c2cccc(Cl)c2)cc1 (stereo not shown) [Compound 59] | 19 (≈ 7.52 µg/mL) | 39.8 | 39.8 | 96.8 | 9.0 | 7.9 | 28 | 
19 | COc1ccc(N2C(=O)c3[nH]nc(CC(C)C)c3C2c2cccc(Br)c2)cc1 (stereo not shown) [Compound 60] | 10 (≈ 4.4 µg/mL) | 25.1 | 39.8 | 97 | 9.1 | 7.9 | 37 | 
